Measured values published in patent US20250051356A1, “RIFABUTIN ANALOGS FOR THE TREATMENT OF DISEASE” (priority 2021, published 2025).
Values after ≈ are worked out from the molar mass of the structure shown. Where two headings read alike, the source gives them in different places.

Assays:
Type in all cases: cell-based
[1] = system: S. aureus (UAMS-1625 strain); assay: MIC by broth microdilution against S. aureus; conditions: Staphylococcus aureus, read-out: MIC S. aureus
[2] = system: A. baumannii (HUMC1 strain); assay: MIC by broth microdilution against A. baumannii in RPMI + 10% FCS; conditions: Acinetobacter baumannii, read-out: MIC A. baumannii
M. avium (ATCC 25291) = assay: MIC against M. avium in CAMHB + ADC; conditions: Mycobacterium avium
M. xenopi (ATCC 19250) = assay: MIC against M. xenopi in CAMHB + ADC; conditions: Mycobacterium xenopi
[3] = system: M. abscessus subsp. abscessus ATCC 19977; assay: MIC against M. abscessus in Middlebrook 7H9 + ADC; conditions: Mycobacteroides abscessus
M. kansasii (ATCC 12478) = assay: MIC against M. kansasii in CAMHB + ADC; conditions: Mycobacterium kansasii
[4] = ATCC25291, ATCC 25291, CAMHB + ADC (5%), read-out: MIC M. avium
[5] = ATCC19250, ATCC 19250, CAMHB + ADC (5%), read-out: MIC M. xenopi
[6] = ATCC19977, ATCC 19977, 7H9 + ADC, read-out: MIC M. abscessus
[7] = ATCC12478, ATCC 12478, CAMHB + ADC (5%), read-out: MIC M. kansasii
[8] = ATCC19977, read-out: MIC M. abscessus

Row | Structure (SMILES) | MIC [1] [µg/mL] | MIC ([2]; HUMC1 strain, RPMI + 10% FCS) [µg/mL] | MIC (M. avium (ATCC 25291); [4]) [µg/mL] | MIC (M. xenopi (ATCC 19250); [5]) [µg/mL] | MIC [3, 6] [µg/mL] | MIC (M. kansasii (ATCC 12478); [7]) [µg/mL] | MIC [2] [µg/mL] | MIC (M. avium (ATCC 25291); ATCC25291, read-out: MIC M. avium) [µg/mL] | MIC (M. xenopi (ATCC 19250); ATCC19250, read-out: MIC M. xenopi) [µg/mL] | MIC [3, 8] [µg/mL] | MIC (M. kansasii (ATCC 12478); ATCC12478, read-out: MIC M. kansasii) [µg/mL]
1 | CO[C@H]1/C=C/O[C@@]2(C)Oc3c(C)c(O)c4c(c3C2=O)C2=NC3(CCN(CC(C)C)CC3)NC2=C(NC(=O)/C(C)=C\C=C\[C@H](C)[C@H](O)[C@@H](C)[C@@H](O)[C@@H](C)[C@H](OC(=O)CC(=O)N2CCC(CCc3ccccc3)CC2)[C@@H]1C)C4=O [Compound 56] | 2 (≈ 1.88 µM) | 0.03 | 0.5 | 0.06 | 0.25 | 0.03 |  |  |  |  | 
2 | CO[C@H]1/C=C/O[C@@]2(C)Oc3c(C)c(O)c4c(c3C2=O)C2=NC3(CCN(CC(C)C)CC3)NC2=C(NC(=O)/C(C)=C\C=C\[C@H](C)[C@H](O)[C@@H](C)[C@@H](O)[C@@H](C)[C@H](OC(=O)CC(=O)N2CCC(Oc3ccccc3)CC2)[C@@H]1C)C4=O [Compound 57] | 0.5 (≈ 0.476 µM) |  |  |  |  |  | 0.03 | 0.125 | 0.03 | 0.125 | 0.008
3 | CO[C@H]1/C=C/O[C@@]2(C)Oc3c(C)c(O)c4c(c3C2=O)C2=NC3(CCN(CC(C)C)CC3)NC2=C(NC(=O)/C(C)=C\C=C\[C@H](C)[C@H](O)[C@@H](C)[C@@H](O)[C@@H](C)[C@H](OC(=O)CC(=O)N2CCCN(c3ccc(F)cc3)CC2)[C@@H]1C)C4=O [Compound 66] | 0.125 (≈ 0.117 µM) | 0.016 | 0.125 | 0.06 |  | 0.016 |  |  |  | 0.125 | 
4 | CO[C@H]1/C=C/O[C@@]2(C)Oc3c(C)c(O)c4c(c3C2=O)C2=NC3(CCN(CC(C)C)CC3)NC2=C(NC(=O)/C(C)=C\C=C\[C@H](C)[C@H](O)[C@@H](C)[C@@H](O)[C@@H](C)[C@H](OC(=O)CC(=O)N2CCC(OC3CCC(C)CC3)CC2)[C@@H]1C)C4=O (stereo partly drawn) [Compound 67] | 0.25 (≈ 0.234 µM) | 0.008 | 0.25 | 0.125 | 0.125 | 0.008 |  |  |  |  | 
5 | CO[C@H]1/C=C/O[C@@]2(C)Oc3c(C)c(O)c4c(c3C2=O)C2=NC3(CCN(CC(C)C)CC3)NC2=C(NC(=O)/C(C)=C\C=C\[C@H](C)[C@H](O)[C@@H](C)[C@@H](O)[C@@H](C)[C@H](OC(=O)CC(=O)N2CCC3C(CCCN3Cc3ccccc3)C2)[C@@H]1C)C4=O (stereo partly drawn) [Compound 68] | 0.5 (≈ 0.453 µM) | 0.03 | 0.03 | 0.125 | 0.25 | 0.001 |  |  |  |  | 
6 | CCC(C(=O)O[C@H]1[C@H](C)[C@H](O)[C@H](C)[C@@H](O)[C@@H](C)/C=C/C=C(/C)C(=O)NC2=C3NC4(CCN(CC(C)C)CC4)N=C3c3c(c(O)c(C)c4c3C(=O)[C@@](C)(O/C=C/[C@H](OC)[C@H]1C)O4)C2=O)C(=O)N1CCCN(c2ccc(F)cc2)CC1 (stereo partly drawn) [Compound 79] | 0.5 (≈ 0.456 µM) | 0.03 | 0.125 | 0.03 | 0.125 | 0.004 |  |  |  |  | 
7 | CO[C@H]1/C=C/OC2(C)Oc3c(C)c(O)c4c(c3C2=O)C2=NC3(CCN(CC(C)C)CC3)NC2=C(NC(=O)/C(C)=C\C=C\[C@H](C)[C@H](O)[C@@H](C)[C@@H](O)[C@@H](C)[C@H](OC(=O)CCC(=O)N2CCC(N(C)c3ccccc3)CC2)[C@@H]1C)C4=O (stereo partly drawn) [Compound 82] | 0.5 (≈ 0.464 µM) | 0.016 | 0.25 | 0.03 | 0.25 | 0.016 |  |  |  |  | 
8 | CO[C@H]1/C=C/OC2(C)Oc3c(C)c(O)c4c(c3C2=O)C2=NC3(CCN(CC(C)C)CC3)NC2=C(NC(=O)/C(C)=C\C=C\[C@H](C)[C@H](O)[C@@H](C)[C@@H](O)[C@@H](C)[C@H](OC(=O)CCC(=O)N2CCCN(c3ccc(F)cc3)CC2)[C@@H]1C)C4=O (stereo partly drawn) [Compound 83] | 0.5 (≈ 0.462 µM) | 0.016 | 0.25 | 0.03 | 0.25 | 0.008 |  |  |  |  | 
